This passage reports half-life and IC50 results from ChEMBL document CHEMBL4417631, “Oral peptide inhibitors of interleukin-23 receptor and their use to treat inflammatory bowel diseases” (2017).

Data set [1] in a line: Half life in simulated gastric fluid at 20 uM by LC-MS/MS analysis. Type of data set: ADME.
The nature of data set [2]: Half life in simulated intestinal fluid at 20 uM by LC-MS/MS analysis. Type of data set: ADME.
Data set [3] has as its target T1, Interleukin-23 receptor (Homo sapiens, UniProt Q5VWK5).
T1 sequence (Q5VWK5 whole entry): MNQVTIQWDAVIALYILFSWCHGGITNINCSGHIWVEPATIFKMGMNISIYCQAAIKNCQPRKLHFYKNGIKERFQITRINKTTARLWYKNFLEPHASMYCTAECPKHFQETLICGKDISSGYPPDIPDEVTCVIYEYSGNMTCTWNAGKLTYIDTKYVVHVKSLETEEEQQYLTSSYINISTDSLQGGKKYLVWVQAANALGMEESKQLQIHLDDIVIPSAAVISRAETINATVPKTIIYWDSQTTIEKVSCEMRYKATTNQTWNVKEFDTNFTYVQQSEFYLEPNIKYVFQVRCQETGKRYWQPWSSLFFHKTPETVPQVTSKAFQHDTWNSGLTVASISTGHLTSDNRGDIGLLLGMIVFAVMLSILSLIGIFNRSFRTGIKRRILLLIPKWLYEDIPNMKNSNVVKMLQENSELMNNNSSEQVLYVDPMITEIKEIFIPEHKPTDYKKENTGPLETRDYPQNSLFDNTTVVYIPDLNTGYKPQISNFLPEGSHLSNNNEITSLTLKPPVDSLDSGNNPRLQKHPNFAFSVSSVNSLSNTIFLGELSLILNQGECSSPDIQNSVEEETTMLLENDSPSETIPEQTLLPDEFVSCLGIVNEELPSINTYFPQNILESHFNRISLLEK
The experiment in a line: Inhibition of interleukin-23 binding to human interleukin-23 receptor incubated for 2 hrs by competitive binding ELISA.

In data set [4] the target is T1, Interleukin-23 receptor. In words: Inhibition of interleukin-23 receptor in human DB cells assessed as reduction in IL-23-stimulated STAT3 phosphorylation incubated for 30 mins by HTRF assay. Type of data set: cell-based. (In general: Time-resolved FRET reads energy transfer from a long-lived donor to a nearby acceptor.)
A short description of data set [5]: Inhibition of interleukin-23 binding to rat interleukin-23 receptor incubated for 2 hrs by competitive binding ELISA.

Usually half-life stands for the time in which the quantity being followed falls by half. A high value points to slow loss. By IC50 is commonly meant the concentration at which inhibition is half-maximal.

Molecules are shown by their SMILES.

Turning to `COc1ccc(C[C@H](NC(=O)[C@@H](NC(=O)[C@H](CCC(N)=O)NC(=O)[C@H](Cc2c[nH]c3ccccc23)NC(=O)[C@@H](NC(=O)[C@H](CC(N)=O)NC(=O)[C@@H](NC(C)=O)C(C)(C)S)[C@@H](C)O)C(C)(C)S)C(=O)N[C@@H](Cc2ccc3ccccc3c2)C(=O)N[C@@](C)(CC(C)C)C(=O)N[C@@H](CCCCNC(C)=O)C(=O)N[C@@H](CC(N)=O)C(=O)N[C@@H](CC(N)=O)C(N)=O)cc1`, the half-life at 20 µM in data set [1] and in data set [2] was more than 6 h each time.
As for `COc1ccc(C[C@H](NC(=O)[C@@H](NC(=O)[C@H](CCC(N)=O)NC(=O)[C@H](Cc2c[nH]c3ccccc23)NC(=O)[C@@H](NC(=O)[C@H](CC(N)=O)NC(=O)[C@@H](NC(C)=O)C(C)(C)S)[C@@H](C)O)C(C)(C)S)C(=O)N[C@@H](Cc2ccc3ccccc3c2)C(=O)NC2(C(=O)N[C@@H](CCCCNC(C)=O)C(=O)N[C@@H](CC(N)=O)C(=O)N[C@@H](CC(N)=O)C(N)=O)CCOCC2)cc1`, the half-life at 20 µM in data set [1] and in data set [2] was more than 6 h throughout.
Turning to `COc1ccc(C[C@H](NC(=O)[C@@H](NC(=O)[C@H](CCC(N)=O)NC(=O)[C@H](Cc2c[nH]c3ccccc23)NC(=O)[C@@H](NC(=O)[C@H](CC(N)=O)NC(=O)[C@@H](NC(C)=O)C(C)(C)S)[C@@H](C)O)C(C)(C)S)C(=O)N[C@@H](Cc2ccc3ccccc3c2)C(=O)NC2(C(=O)N[C@@H](CCCCNC(C)=O)C(=O)N[C@@H](CC(N)=O)C(=O)N[C@@H](CC(N)=O)C(N)=O)CCCCC2)cc1`, the half-life at 20 µM was more than 6 h in data set [1] and 3 to 6 h in data set [2].
Turning to `CC(=O)NCCCC[C@H](NC(=O)C(C)(C)NC(=O)[C@H](Cc1ccc2ccccc2c1)NC(=O)[C@H](Cc1ccc(OCCN)cc1)NC(=O)[C@@H](NC(=O)[C@H](CCC(N)=O)NC(=O)[C@H](Cc1c[nH]c2ccccc12)NC(=O)[C@@H](NC(=O)[C@H](CC(N)=O)NC(=O)[C@@H](NC(=O)[C@@H](Cc1ccccc1)NC(C)=O)C(C)(C)S)[C@@H](C)O)C(C)(C)S)C(=O)N[C@@H](CC(N)=O)C(=O)NCCC(N)=O`, the half-life at 20 µM in data set [1] was 3 to 6 h; in data set [2], more than 6 h.
Take `CC(=O)N[C@@H](Cc1ccccc1)C(=O)N[C@H]1CCSC[C@@H](C(=O)N[C@@H](Cc2ccc(OCCN)cc2)C(=O)N[C@@H](Cc2ccc3ccccc3c2)C(=O)N[C@@](C)(CCCCN)C(=O)N[C@@H](CCC(=O)O)C(=O)N[C@@H](CC(N)=O)C(=O)N[C@@H](CC(N)=O)C(N)=O)NC(=O)[C@H](CCC(N)=O)NC(=O)[C@H](Cc2c[nH]c3ccccc23)NC(=O)[C@H]([C@@H](C)O)NC(=O)[C@H](CCC(N)=O)NC1=O`: the half-life at 20 µM in data set [1] was 2 to 3 h; in data set [2], 1 to 2 h.
With `CC(=O)NCCCC[C@H](NC(=O)C1(NC(=O)[C@H](Cc2ccc3ccccc3c2)NC(=O)[C@H](Cc2ccc(C(N)=O)cc2)NC(=O)[C@@H](NC(=O)[C@H](CCC(N)=O)NC(=O)[C@H](Cc2c[nH]c3ccccc23)NC(=O)[C@@H](NC(=O)[C@H](CC(N)=O)NC(=O)[C@@H](NC(C)=O)C(C)(C)S)[C@@H](C)O)C(C)(C)S)CCCCC1)C(=O)N[C@@H](CC(N)=O)C(=O)N[C@@H](CC(N)=O)C(N)=O`, the half-life at 20 µM in data set [1] and in data set [2] was more than 6 h throughout.
In the case of `CC(=O)NCCCC[C@H](NC(=O)C(C)(C)NC(=O)[C@H](Cc1ccc2ccccc2c1)NC(=O)[C@H](Cc1ccc(OCCN)cc1)NC(=O)[C@@H](NC(=O)[C@H](CCC(N)=O)NC(=O)[C@H](Cc1c[nH]c2ccccc12)NC(=O)[C@@H](NC(=O)[C@H](CC(N)=O)NC(=O)[C@@H](NC(=O)[C@@H](Cc1ccccc1)NC(C)=O)C(C)(C)S)[C@@H](C)O)C(C)(C)S)C(=O)N[C@@H](CC(N)=O)C(=O)N[C@@H](CC(N)=O)C(N)=O`, the half-life at 20 µM in data set [1] and in data set [2] was more than 6 h each time.
In the case of `CC(=O)NCCCC[C@H](NC(=O)[C@](C)(CC(C)C)NC(=O)[C@H](Cc1ccc2ccccc2c1)NC(=O)[C@H](Cc1ccc(C(N)=O)cc1)NC(=O)[C@@H](NC(=O)[C@H](CCC(N)=O)NC(=O)[C@H](Cc1c[nH]c2ccccc12)NC(=O)[C@@H](NC(=O)[C@H](CC(N)=O)NC(=O)[C@@H](NC(C)=O)C(C)(C)S)[C@@H](C)O)C(C)(C)S)C(=O)N[C@@H](CC(N)=O)C(=O)N[C@@H](CC(N)=O)C(N)=O`, the half-life at 20 µM in data set [1] and in data set [2] was more than 6 h in each case.
The compound `CC(=O)NCCCC[C@](C)(NC(=O)[C@H](Cc1ccc2ccccc2c1)NC(=O)[C@H](Cc1ccc(OCCNC(C)=O)cc1)NC(=O)[C@@H](NC(=O)[C@H](CCC(N)=O)NC(=O)[C@H](Cc1c[nH]c2ccccc12)NC(=O)[C@@H](NC(=O)[C@](C)(CCCNC(C)=O)NC(=O)[C@@H](NC(C)=O)C(C)(C)S)[C@@H](C)O)C(C)(C)S)C(=O)N[C@@H](CCC(=O)O)C(=O)N[C@@H](CC(N)=O)C(=O)NCC(N)=O` had an IC50 at Interleukin-23 receptor [3] of 100 to 1000 nM. The half-life at 20 µM is 3 to 6 h in data set [1] and 1 to 2 h in data set [2].
As to `CC(=O)N[C@@H](CCCNC(=N)N)C(=O)N[C@H]1CCSC[C@@H](C(=O)N[C@@H](Cc2ccc(OCCN)cc2)C(=O)N[C@@H](Cc2ccc3ccccc3c2)C(=O)N[C@@](C)(CCCCN)C(=O)N[C@@H](CCC(=O)O)C(=O)N[C@@H](CC(N)=O)C(=O)N[C@@H](CC(N)=O)C(N)=O)NC(=O)[C@H](CCC(N)=O)NC(=O)[C@H](Cc2c[nH]c3ccccc23)NC(=O)[C@H]([C@@H](C)O)NC(=O)[C@H](CCC(N)=O)NC1=O`, the half-life at 20 µM in data set [1] was 2 to 3 h; in data set [2], less than 1 h.
As to `CC(=O)N[C@H](C(=O)N[C@@H](CCC(N)=O)C(=O)N[C@H](C(=O)N[C@@H](Cc1c[nH]c2ccccc12)C(=O)N[C@@H](CCC(N)=O)C(=O)N[C@H](C(=O)N[C@@H](Cc1ccc(O)cc1)C(=O)N[C@@H](Cc1ccc2ccccc2c1)C(=O)N[C@@](C)(CCCCN)C(=O)N[C@@H](CCC(=O)O)C(=O)N[C@@H](CC(N)=O)C(=O)NCC(N)=O)C(C)(C)S)[C@@H](C)O)C(C)(C)S`, the IC50 is 25 to 100 nM at Interleukin-23 receptor [3], less than 10 nM on Interleukin-23 receptor [4] and 100 to 1000 nM in data set [5]. The compound also gave a half-life at 20 µM in data set [2] of 3 to 6 h.
Regarding `COc1ccc(C[C@H](NC(=O)[C@@H]2CSCC[C@H](NC(C)=O)C(=O)N[C@@H](CCC(N)=O)C(=O)N[C@@H]([C@@H](C)O)C(=O)N[C@@H](Cc3c[nH]c4ccccc34)C(=O)N[C@@H](CCC(N)=O)C(=O)N2)C(=O)N[C@@H](Cc2ccc3ccccc3c2)C(=O)N[C@H](CC(N)=O)C(=O)N[C@@H](CCCCNC(C)=O)C(=O)N[C@@H](CC(N)=O)C(=O)NCC(N)=O)cc1`, the IC50 on Interleukin-23 receptor [3] is 25 to 100 nM; at Interleukin-23 receptor [4], 25 to 100 nM; in data set [5] it was 100 to 1000 nM. For the same compound, in data set [2], the half-life at 20 µM is more than 6 h.
Take `CC(=O)NCCCC[C@H](NC(=O)[C@](C)(CCCN)NC(=O)[C@H](Cc1c[nH]c2ccccc12)NC(=O)[C@H](Cc1ccc(O)cc1)NC(=O)[C@@H]1CSCC[C@H](NC(C)=O)C(=O)N[C@@H](CCC(N)=O)C(=O)N[C@@H]([C@@H](C)O)C(=O)N[C@@H](Cc2c[nH]c3ccccc23)C(=O)N[C@@H](CCC(N)=O)C(=O)N1)C(=O)N[C@@H](CC(N)=O)C(=O)NCC(N)=O`: the IC50 was in the range of 25 to 100 nM on Interleukin-23 receptor [3], 10 to 25 nM at Interleukin-23 receptor [4] and 25 to 100 nM in data set [5]. Besides, the half-life at 20 µM in data set [2] was 3 to 6 h.
`CC(=O)NCCCC[C@H](NC(=O)C1(NC(=O)[C@H](Cc2ccc3ccccc3c2)NC(=O)[C@H](Cc2ccc(C(N)=O)cc2)NC(=O)[C@@H](NC(=O)[C@H](CCC(N)=O)NC(=O)[C@H](Cc2c[nH]c3ccccc23)NC(=O)[C@@H](NC(=O)[C@H](CC(N)=O)NC(=O)[C@@H](NC(C)=O)C(C)(C)S)[C@@H](C)O)C(C)(C)S)CCOCC1)C(=O)N[C@@H](CC(N)=O)C(=O)N[C@@H](CC(N)=O)C(N)=O`: the half-life at 20 µM in data set [1] is 3 to 6 h; in data set [2] it was more than 6 h.
`CC(=O)N[C@H](C(=O)N[C@@H](CCC(N)=O)C(=O)N[C@H](C(=O)N[C@@H](Cc1c[nH]c2ccccc12)C(=O)N[C@@H](CCC(N)=O)C(=O)N[C@H](C(=O)N[C@@H](Cc1ccc(O)cc1)C(=O)N[C@@H](Cc1c[nH]c2ccccc12)C(=O)N[C@@](C)(CCCN)C(=O)N[C@@H](CCC(=O)O)C(=O)N[C@@H](CC(N)=O)C(=O)NCC(N)=O)C(C)(C)S)[C@@H](C)O)C(C)(C)S`: the IC50 on Interleukin-23 receptor [3] was in the range of 100 to 1000 nM; at Interleukin-23 receptor [4] it was 25 to 100 nM; in data set [5], 100 to 1000 nM. Besides, the half-life at 20 µM in data set [2] was 3 to 6 h.
For `CC(=O)NCCCC[C@H](NC(=O)C1(NC(=O)[C@H](Cc2ccc3ccccc3c2)NC(=O)[C@H](Cc2ccc(C(N)=O)cc2)NC(=O)[C@@H](NC(=O)[C@H](CCC(N)=O)NC(=O)[C@H](Cc2c[nH]c3ccccc23)NC(=O)[C@@H](NC(=O)[C@H](CC(N)=O)NC(=O)[C@@H](NC(C)=O)C(C)(C)S)[C@@H](C)O)C(C)(C)S)CCCC1)C(=O)N[C@@H](CC(N)=O)C(=O)N[C@@H](CC(N)=O)C(N)=O`, the half-life at 20 µM in data set [1] and in data set [2] was more than 6 h in each case.
